Reference: US9670231B2, “Fused tricyclic amide compounds as multiple kinase inhibitors” (BEIGENE, LTD., priority 2013, dated 2017)

Legend:
Type in all cases: biochemical
wild type B-Raf = wild type B-Raf (Homo sapiens (Human), UniProt P15056); assay: WT BRaf IC50 assay, TR-FRET; design: Braf-WT Km ATP, % at 100 nM: scale not given here; conditions: for Braf-WT Km ATP, % at 100 nM: at 100 nM compound; for IC50: Km ATP ([…] ATP), read-out: IC50 Braf-WT Km ATP
Experimental: WT BRaf IC50 Assay Protocol
Compounds disclosed herein were tested against wild type B-Raf (PV3848, from Invitrogen) in a time-resolved fluorescence energy transfer assay. […] The enzyme was incubated with the compounds disclosed herein at room temperature for 120 minutes and the reactions were initiated by the addition of ATP and GST-MEK1. After incubating at room temperature for 60 minutes, an equal volume of stop buffer containing 25 mM Tris pH7.4, 400 mM KF, 50 mM EDTA, 0.1% BSA, 0.01% Triton X-100, 1 test of Eu3+Cryptate-conjugated rabbit polyclonal antibody anti-Phospho MEK1/2 (Ser217/221) and 1 test of d2-conjugated mouse monoclonal antibody anti-glutathione S-transferase was added to stop the reactions. Plates were sealed and incubated at room temperature for 1.5 hours, and then the TR-FRET signals were read on BMG PHERAstar FS instrument. The IC50 for each compound was calculated by non linear regression by Graphpad Prism software.

B-Raf (V600E) = B-Raf (V600E) (Homo sapiens (Human), UniProt P15056, V600E); assay: Raf IC50 assay, TR-FRET, B-Raf (V600E); conditions: 0.1 mM ATP; read-out: IC50 BRAF-V600E
Experimental: The enzyme was incubated with the compounds disclosed herein at room temperature for 60 minutes and the reactions were initiated by the addition of ATP and GST-MEK1. After reaction at room temperature for 60 minutes, an equal volume of stop/detection solution was added according to the manufacture's instruction (CisBio Bioassays). […] The IC50 for each compound was derived from fitting the dose-response % inhibition data to the four-parameter logistic model by Graphpad Prism software.

EGFR L858R kinase domain = EGFR L858R kinase domain (Homo sapiens (Human), UniProt P00533, L858R); assay: EGFR enzymatic assay, TR-FRET, EGFR L858R
Experimental: (§1) Compounds disclosed herein were tested against WT EGFR kinase domain (aa.669-1210, Carna Biosciences, 08-115), EGFR T790M/L858R kinase domain (aa.669-1210, Carna Biosciences, 08-510) and EGFR L858R kinase domain (aa.669-1210, Carna Biosciences, 08-502) in assays based on time-resolved fluorescence-resonance energy transfer methodology. The assay was carried out in 384-well low volume black plate in a reaction mixture containing EGFR kinases, 20 LM for EGFR WT and T790M/L858R, and 125 LM for EGFR L858R), biotin-TK substrate and 0-5 LM compounds in buffer containing 50 mM HEPES pH7.5, 10 mM MgCl2, 1 mM EGTA, 0.01% Brij-35, 2.5 mM DTT, 0.1% BSA. The kinase was incubated with the compounds disclosed herein at room temperature for 120 minutes and the reaction was initiated by the addition of ATP and biotin-TK substrate. After reaction at room temperature for 30 minutes, an equal volume of stop/detection solution was added according to the manufacture's instruction (CisBio Bioassays). The stop/detection solution contained TK-Antibody-Cryptate and Streptavidin-XL665 in buffer containing 25 mM Tris pH7.4, 400 mM KF, 50 mM EDTA, 0.01% BSA, 0.01% Triton X-100. Plates were sealed and incubated at room temperature for 1 hour, and the TR-FRET signals were read on BMG PHERAstar FS instrument. The IC50 of an inhibitor was derived from fitting the % inhibition data at each compound concentration to the four-parameter logistic equation by Graphpad Prism software.

[1] = biological target: EGFR T790M/L858R kinase domain (Homo sapiens (Human), UniProt P00533, L858R/T790M); assay: EGFR enzymatic assay, TR-FRET, EGFR T790M/L858R
Experimental: as §1

WT EGFR kinase domain = WT EGFR kinase domain (Homo sapiens (Human), UniProt P00533); assay: EGFR enzymatic assay, TR-FRET, WT EGFR
Experimental: as §1

Sequence of WT EGFR kinase domain (P00533 669-1210): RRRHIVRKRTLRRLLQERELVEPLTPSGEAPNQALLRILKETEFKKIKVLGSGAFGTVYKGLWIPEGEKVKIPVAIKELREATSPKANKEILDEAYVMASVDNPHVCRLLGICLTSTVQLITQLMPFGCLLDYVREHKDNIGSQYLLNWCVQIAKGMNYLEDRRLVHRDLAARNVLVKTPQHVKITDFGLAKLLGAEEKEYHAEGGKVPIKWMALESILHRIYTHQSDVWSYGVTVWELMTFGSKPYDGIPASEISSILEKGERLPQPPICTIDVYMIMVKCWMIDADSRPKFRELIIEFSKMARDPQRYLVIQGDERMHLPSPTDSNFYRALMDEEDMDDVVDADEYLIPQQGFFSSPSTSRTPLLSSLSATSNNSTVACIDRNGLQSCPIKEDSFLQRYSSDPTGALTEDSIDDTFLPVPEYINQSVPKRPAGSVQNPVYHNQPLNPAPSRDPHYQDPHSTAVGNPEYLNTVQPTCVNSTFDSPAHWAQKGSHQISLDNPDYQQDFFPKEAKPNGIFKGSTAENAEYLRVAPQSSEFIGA
Sequence of B-Raf (V600E) (P15056 whole entry V600E): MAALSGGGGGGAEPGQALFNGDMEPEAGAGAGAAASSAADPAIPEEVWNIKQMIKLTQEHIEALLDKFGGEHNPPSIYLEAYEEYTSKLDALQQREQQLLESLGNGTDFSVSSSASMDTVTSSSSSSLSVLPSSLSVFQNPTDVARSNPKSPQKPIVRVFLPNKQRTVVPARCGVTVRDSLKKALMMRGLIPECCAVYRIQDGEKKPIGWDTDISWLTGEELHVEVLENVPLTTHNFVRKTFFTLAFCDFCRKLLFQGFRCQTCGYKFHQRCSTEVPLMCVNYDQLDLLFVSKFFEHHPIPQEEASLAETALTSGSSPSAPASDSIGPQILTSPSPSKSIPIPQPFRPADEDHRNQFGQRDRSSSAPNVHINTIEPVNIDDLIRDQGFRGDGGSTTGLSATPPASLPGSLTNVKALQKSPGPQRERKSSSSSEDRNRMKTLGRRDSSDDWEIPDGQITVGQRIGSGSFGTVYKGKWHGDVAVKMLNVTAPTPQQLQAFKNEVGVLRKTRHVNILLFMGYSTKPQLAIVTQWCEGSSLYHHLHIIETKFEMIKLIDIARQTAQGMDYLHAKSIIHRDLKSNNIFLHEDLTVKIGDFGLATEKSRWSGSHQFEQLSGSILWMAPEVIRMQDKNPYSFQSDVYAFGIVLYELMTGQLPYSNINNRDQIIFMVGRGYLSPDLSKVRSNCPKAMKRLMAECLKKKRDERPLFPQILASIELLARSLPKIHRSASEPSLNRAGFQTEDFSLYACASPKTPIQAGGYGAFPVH
Sequence of wild type B-Raf (P15056 whole entry): as the sequence (P15056 whole entry V600E) above, with E600V counted along it
Sequence of EGFR L858R kinase domain (P00533 669-1210 L858R): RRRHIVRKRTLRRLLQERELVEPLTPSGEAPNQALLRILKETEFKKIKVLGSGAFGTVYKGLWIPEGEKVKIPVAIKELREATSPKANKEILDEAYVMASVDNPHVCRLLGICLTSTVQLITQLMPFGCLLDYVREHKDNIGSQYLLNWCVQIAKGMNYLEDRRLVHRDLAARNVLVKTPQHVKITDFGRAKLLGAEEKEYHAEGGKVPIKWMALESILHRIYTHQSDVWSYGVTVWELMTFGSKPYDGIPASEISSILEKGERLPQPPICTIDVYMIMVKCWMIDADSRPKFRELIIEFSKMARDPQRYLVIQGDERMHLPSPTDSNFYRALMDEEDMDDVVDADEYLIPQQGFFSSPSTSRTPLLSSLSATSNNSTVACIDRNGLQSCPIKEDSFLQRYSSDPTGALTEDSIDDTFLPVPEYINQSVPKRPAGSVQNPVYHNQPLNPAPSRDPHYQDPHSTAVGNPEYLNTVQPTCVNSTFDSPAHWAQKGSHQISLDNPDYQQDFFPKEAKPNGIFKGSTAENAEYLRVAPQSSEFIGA
Sequence of EGFR T790M/L858R kinase domain (P00533 669-1210 T790M/L858R): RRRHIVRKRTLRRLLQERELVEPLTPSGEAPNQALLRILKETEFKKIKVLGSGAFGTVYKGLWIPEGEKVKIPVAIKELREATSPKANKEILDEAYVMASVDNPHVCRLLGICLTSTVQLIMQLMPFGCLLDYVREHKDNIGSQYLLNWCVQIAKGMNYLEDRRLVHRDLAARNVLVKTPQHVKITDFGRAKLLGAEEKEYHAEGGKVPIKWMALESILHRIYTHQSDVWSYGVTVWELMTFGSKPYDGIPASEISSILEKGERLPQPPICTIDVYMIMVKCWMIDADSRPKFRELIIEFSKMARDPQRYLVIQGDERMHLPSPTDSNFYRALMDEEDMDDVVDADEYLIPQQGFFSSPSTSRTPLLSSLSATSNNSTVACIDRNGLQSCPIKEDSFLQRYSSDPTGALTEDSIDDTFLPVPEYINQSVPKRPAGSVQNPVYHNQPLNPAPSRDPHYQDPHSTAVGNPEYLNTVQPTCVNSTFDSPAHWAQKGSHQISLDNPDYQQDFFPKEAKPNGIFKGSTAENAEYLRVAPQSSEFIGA

| Braf-WT Km ATP, % at 100 nM (wild type B-Raf) [% at 100 nM] | IC50 (B-Raf (V600E)) [nM] | IC50 (EGFR L858R kinase domain) [nM] | IC50 [1] [nM] | IC50 (WT EGFR kinase domain) [nM] | IC50 (wild type B-Raf) [nM] | SMILES |
| --- | --- | --- | --- | --- | --- | --- |
| 102 | 9.2 | – | – | – | – | O=C1CCc2c(Oc3ccc4c(c3)[C@H]3[C@H](NC(=O)c5ccc(C(F)(F)F)c(F)c5)[C@H]3O4)ccnc2N1 [Compound 1.42] |
| 101 | 3.1 | 5.4 | 104 | 8.5 | – | O=C1CCc2c(Oc3ccc4c(c3)[C@H]3[C@H](NC(=O)c5cc(C(F)(F)F)ccn5)[C@H]3O4)ccnc2N1 [Compound 1.45, N-((1S,1aS,6bS)-5-((7-oxo-5,6,7,8-tetrahydro-1,8-naphthyridin-4-yl)oxy)-1a,6b-dihydro-1H-cyclopropa[b]benzofuran-1-yl)-4-(trifluoromethyl)picolinamide] |
| 93 | 4.9 | 152 | 757 | 326 | – | O=C1CCc2c(Oc3ccc4c(c3)[C@H]3[C@H](NC(=O)c5ccc(-c6ccccc6)o5)[C@H]3O4)ccnc2N1 [Compound 1.54] |
| 93 | 4.8 | 63 | > 5000 | 243 | – | O=C1CCc2c(Oc3ccc4c(c3)[C@H]3[C@H](NC(=O)c5ccccc5C(F)(F)F)[C@H]3O4)ccnc2N1 [Compound 1.44] |
| 100 | 1.2 | 29 | 648 | 59 | – | O=C1CCc2c(Oc3ccc4c(c3)[C@H]3[C@H](NC(=O)c5ccc(F)c(F)c5)[C@H]3O4)ccnc2N1 [Compound 1.41] |
| 84 | 4.7 | 79 | 3190 | 425 | – | O=C1CCc2c(Oc3ccc4c(c3)[C@H]3[C@H](NC(=O)c5ccccc5F)[C@H]3O4)ccnc2N1 [Compound 1.38] |
| – | 16 | 0.91 | 5.3 | 1.7 | – | CN(C)[C@@H]1CCCN(c2ccc(C(=O)N[C@@H]3[C@H]4Oc5ccc(Oc6ccnc7c6CCC(=O)N7)cc5[C@@H]34)cc2C(F)(F)F)C1 [Compound 1.48] |
| – | – | – | – | – | 32 | CN(C)[C@H]1CCN(Cc2ccc(C(=O)N[C@@H]3[C@H]4Oc5ccc(Oc6ccnc7c6CCC(=O)N7)cc5[C@@H]34)cc2C(F)(F)F)C1 [Compound 1.9] |
| – | 11 | 29 | 119 | 254 | – | CN1CCN(Cc2ccc(C(=O)N[C@H]3[C@@H]4Oc5ccc(Oc6ccnc7c6CCC(=O)N7)cc5[C@H]34)cc2C(F)(F)F)CC1 [Compound 1.34] |
| – | – | – | – | – | 15 | CN1CCN(CCOc2ccc(C(=O)N[C@@H]3[C@H]4Oc5ccc(Oc6ccnc7c6CCC(=O)N7)cc5[C@@H]34)cc2C(F)(F)F)CC1 [Compound 1.52] |
| – | 1.5 | 949 | 2550 | 3450 | – | O=C1CCc2c(Oc3ccc4c(c3)[C@H]3[C@H](NC(=O)Cc5cccc(C(F)(F)F)c5)[C@H]3O4)ccnc2N1 [Compound 1.60] |
| – | 18 | 0.35 | 0.4 | 2.2 | – | CCN1CCN(Cc2ccc(C(=O)NC3C4Oc5c(C)cc(Oc6ccnc7c6CCC(=O)N7)cc5C34)cc2C(F)(F)F)CC1 (stereo not drawn) [Compound 1.55, 4-((4-ethylpiperazin-1-yl)methyl)-N-(3-methyl-5-((7-oxo-5,6,7,8-tetrahydro-1,8-naphthyridin-4-yl)oxy)-1a,6b-dihydro-1H-cyclopropa[b]benzofuran-1-yl)-3-(trifluoromethyl)benzamide] |
| 96 | 1.4 | 60 | 538 | 93 | – | O=C1CCc2c(Oc3ccc4c(c3)[C@H]3[C@H](NC(=O)c5ccc(F)cc5)[C@H]3O4)ccnc2N1 [Compound 1.36] |
| – | 2.5 | 52 | 316 | 85 | 1.4 | N#CC1(c2cccc(C(=O)N[C@@H]3[C@H]4Oc5ccc(Oc6ccnc7c6CCC(=O)N7)cc5[C@@H]34)c2)CC1 [Compound 1.46, 3-(1-cyanocyclopropyl)-N-((1S,1aS,6bS)-5-((7-oxo-5,6,7,8-tetrahydro-1,8-naphthyridin-4-yl)oxy)-1a,6b-dihydro-1H-cyclopropa[b]benzofuran-1-yl)benzamide] |
| – | 27 | 292 | 813 | 249 | – | O=C1CCc2c(Oc3ccc4c(c3)[C@H]3[C@H](NC(=O)c5ccc(CN6CCN(CC(F)(F)F)CC6)c(C(F)(F)F)c5)[C@H]3O4)ccnc2N1 [Compound 1.2] |
| – | 21 | 0.4 | 0.47 | 2.5 | – | Cc1cc(Oc2ccnc3c2CCC(=O)N3)cc2c1OC1C(NC(=O)c3ccc(CN4CCN(C)CC4)c(C(F)(F)F)c3)C21 (stereo not drawn) [Compound 1.56] |
| – | 8.8 | 0.28 | 3 | 1.3 | – | CN1CCN(Cc2ccc(C(=O)N[C@@H]3[C@H]4Oc5ccc(Oc6ccnc7c6CCC(=O)N7)cc5[C@@H]34)cc2F)CC1 [Compound 1.21] |
| – | 0.6 | 182 | 1410 | 385 | – | CCCCCC(=O)N[C@@H]1[C@H]2Oc3ccc(Oc4ccnc5c4CCC(=O)N5)cc3[C@@H]12 [Compound 1.67] |
| – | – | – | – | – | 16 | CN(C)C1CCN(Cc2ccc(C(=O)N[C@@H]3[C@H]4Oc5ccc(Oc6ccnc7c6CCC(=O)N7)cc5[C@@H]34)cc2C(F)(F)F)CC1 [Compound 1.20] |
| – | 10 | 0.17 | 0.2 | 0.74 | – | CCN1CCC(Cc2ccc(C(=O)N[C@@H]3[C@H]4Oc5ccc(Oc6ccnc7c6CCC(=O)N7)cc5[C@@H]34)cc2C(F)(F)F)CC1 [Compound 1.74, 4-((1-ethylpiperidin-4-yl)methyl)-N-((1S,1aS,6bS)-5-((7-oxo-5,6,7,8-tetrahydro-1,8-naphthyridin-4-yl)oxy)-1a,6b-dihydro-1H-cyclopropa[b]benzofuran-1-yl)-3-(trifluoromethyl)benzamide] |
| – | 11 | 7.1 | 25 | 6.3 | – | CCN1CCN(c2ccc(C(=O)N[C@@H]3[C@H]4Oc5ccc(Oc6ccnc7c6CCC(=O)N7)cc5[C@@H]34)cc2C(F)(F)F)CC1 [Compound 1.50] |
| – | 2.5 | 296 | 234 | 1140 | – | O=C1CCc2c(Oc3ccc4c(c3)[C@H]3[C@H](NC(=O)c5cccc(C(F)(F)F)n5)[C@H]3O4)ccnc2N1 [Compound 1.63] |
| – | 10 | 0.79 | 8 | 1.2 | – | CCN1CCN(Cc2ccc(C(=O)N[C@@H]3[C@H]4Oc5ccc(Oc6ccnc7c6CCC(=O)N7)cc5[C@@H]34)cc2OC(F)(F)F)CC1 [Compound 1.78, 4-((4-ethylpiperazin-1-yl)methyl)-N-((1S,1aS,6bS)-5-((7-oxo-5,6,7,8-tetrahydro-1,8-naphthyridin-4-yl)oxy)-1a,6b-dihydro-1H-cyclopropa[b]benzofuran-1-yl)-3-(trifluoromethoxy)benzamide] |
| – | 10 | 2.1 | 21 | 2.7 | – | CN(C)C1CCN(c2ccc(C(=O)N[C@@H]3[C@H]4Oc5ccc(Oc6ccnc7c6CCC(=O)N7)cc5[C@@H]34)cc2C(F)(F)F)CC1 [Compound 1.71] |
| – | 1 | 4.8 | 6.2 | 19 | – | Cc1cc(C(=O)N[C@@H]2[C@H]3Oc4ccc(Oc5ccnc6c5CCC(=O)N6)cc4[C@@H]23)ccc1CO [Compound 1.59, 4-(hydroxymethyl)-3-methyl-N-((1S,1aS,6bS)-5-((7-oxo-5,6,7,8-tetrahydro-1,8-naphthyridin-4-yl)oxy)-1a,6b-dihydro-1H-cyclopropa[b]benzofuran-1-yl)benzamide] |
